Laboratory results: PMC5218480 (PLoS ONE, 2017)

System: MV-4-11 cells
Test: Gene expression microarray analysis (Affymetrix PrimeView) and GSEA
Type: cell-based, human
Parameters: RFU PODN (11730768_x_at) / Fold change /veh PODN (11730768_x_at) / RFU LINC00158 (11744669_a_at) / Fold change /veh LINC00158 (11744669_a_at) / RFU DUSP10 (11751237_a_at) / Fold change /veh DUSP10 (11751237_a_at) / RFU ID3 (11757404_x_at) / Fold change /veh ID3 (11757404_x_at) / RFU PLEKHG5 (11737974_s_at) / Fold change /veh PLEKHG5 (11737974_s_at) / RFU LRRC4B (11730491_at) / Fold change /veh LRRC4B (11730491_at) / RFU GIMAP4 (11747438_a_at) / Fold change /veh GIMAP4 (11747438_a_at) / RFU KRT8 (11758183_x_at) / Fold change /veh KRT8 (11758183_x_at) / RFU CNN1 (11734310_a_at) / Fold change /veh CNN1 (11734310_a_at) / RFU VPS37D (11726825_at) / Fold change /veh VPS37D (11726825_at) / RFU C10orf10 (11716522_x_at) / Fold change /veh C10orf10 (11716522_x_at) / RFU KIR2DL2 /// KIR2DL4 /// KIR2DL5A /// KIR2DL5B /// KIR2DS1 /// KIR2DS2 /// KIR2DS3 /// KIR2DS4 /// KIR3DL3 /// KIR3DL3 /// KIR3DS1 (11738374_at) / Fold change /veh KIR2DL2 /// KIR2DL4 /// KIR2DL5A /// KIR2DL5B /// KIR2DS1 /// KIR2DS2 /// KIR2DS3 /// KIR2DS4 /// KIR3DL3 /// KIR3DL3 /// KIR3DS1 (11738374_at) / RFU C1QL1 (11718748_at) / Fold change /veh C1QL1 (11718748_at) / RFU TMPRSS4 (11747572_a_at) / Fold change /veh TMPRSS4 (11747572_a_at) / RFU HAMP (11756126_x_at) / Fold change /veh HAMP (11756126_x_at) / RFU RNFT2 (11725882_a_at) / Fold change /veh RNFT2 (11725882_a_at) / RFU NR4A2 (11747474_a_at) / Fold change /veh NR4A2 (11747474_a_at) / RFU ABCC12 (11746883_a_at) / Fold change /veh ABCC12 (11746883_a_at) / RFU TMEM136 (11760407_x_at) / Fold change /veh TMEM136 (11760407_x_at) / RFU CLDN22 /// WWC2 (11732394_at) / Fold change /veh CLDN22 /// WWC2 (11732394_at) / RFU HLA-DPB1 (11760878_x_at) / Fold change /veh HLA-DPB1 (11760878_x_at) / RFU SPINT1 (11716480_a_at) / Fold change /veh SPINT1 (11716480_a_at) / RFU GAP43 (11754022_s_at) / Fold change /veh GAP43 (11754022_s_at) / RFU A4GNT (11735810_at) / Fold change /veh A4GNT (11735810_at) / RFU PRB3 (11715151_x_at) / Fold change /veh PRB3 (11715151_x_at) / RFU TUBB4B (11761932_at) / Fold change /veh TUBB4B (11761932_at) / RFU CAPN14 (11732068_a_at) / Fold change /veh CAPN14 (11732068_a_at) / RFU TMCC2 (11721928_a_at) / Fold change /veh TMCC2 (11721928_a_at) / RFU IRGQ (11745062_a_at) / Fold change /veh IRGQ (11745062_a_at) / RFU FAM174B (11720279_a_at) / Fold change /veh FAM174B (11720279_a_at) / RFU TMPRSS4 (11748680_a_at) / Fold change /veh TMPRSS4 (11748680_a_at) / RFU FAM212B (11763350_a_at) / Fold change /veh FAM212B (11763350_a_at) / RFU PLEKHG5 (11743358_a_at) / Fold change /veh PLEKHG5 (11743358_a_at) / RFU ZSCAN30 (11745921_a_at) / Fold change /veh ZSCAN30 (11745921_a_at) / RFU CMKLR1 (11741424_a_at) / Fold change /veh CMKLR1 (11741424_a_at) / RFU LOC101060620 /// MAPK8IP1 (11723275_at) / Fold change /veh LOC101060620 /// MAPK8IP1 (11723275_at) / RFU SPTSSB (11747773_x_at) / Fold change /veh SPTSSB (11747773_x_at) / RFU PRSS12 (11739890_at) / Fold change /veh PRSS12 (11739890_at) / RFU BIN1 (11741810_x_at) / Fold change /veh BIN1 (11741810_x_at) / RFU WNT11 (11732464_a_at) / Fold change /veh WNT11 (11732464_a_at) / RFU C10orf10 (11716521_a_at) / Fold change /veh C10orf10 (11716521_a_at) / RFU C5orf56 (11738089_at) / Fold change /veh C5orf56 (11738089_at) / RFU CYB561 (11721691_x_at) / Fold change /veh CYB561 (11721691_x_at) / RFU ANKRD19P (11752326_a_at) / Fold change /veh ANKRD19P (11752326_a_at) / RFU OR2T12 /// OR2T33 /// OR2T8 (11738714_s_at) / Fold change /veh OR2T12 /// OR2T33 /// OR2T8 (11738714_s_at) / RFU VCAN (11748164_a_at) / Fold change /veh VCAN (11748164_a_at) / RFU JSRP1 (11732532_at) / Fold change /veh JSRP1 (11732532_at) / RFU KRTAP10-11 (11738290_x_at) / Fold change /veh KRTAP10-11 (11738290_x_at) / RFU MYO3A (11730013_a_at) / Fold change /veh MYO3A (11730013_a_at) / RFU EBF3 (11725865_a_at) / Fold change /veh EBF3 (11725865_a_at) / RFU CAMK2N1 (11719241_x_at) / Fold change /veh CAMK2N1 (11719241_x_at) / RFU C5orf56 (11738088_a_at) / Fold change /veh C5orf56 (11738088_a_at) / RFU OLFML3 (11715873_a_at) / Fold change /veh OLFML3 (11715873_a_at) / RFU LOC100653217 /// NTM (11731650_a_at) / Fold change /veh LOC100653217 /// NTM (11731650_a_at) / RFU MAPK11 (11762145_a_at) / Fold change /veh MAPK11 (11762145_a_at) / RFU FIZ1 (11724087_x_at) / Fold change /veh FIZ1 (11724087_x_at) / RFU OASL (11726364_x_at) / Fold change /veh OASL (11726364_x_at) / RFU SOX15 (11748057_x_at) / Fold change /veh SOX15 (11748057_x_at) / RFU CD79A (11719716_a_at) / Fold change /veh CD79A (11719716_a_at) / RFU HIST1H1D (11736915_at) / Fold change /veh HIST1H1D (11736915_at) / RFU CASKIN2 (11723855_a_at) / Fold change /veh CASKIN2 (11723855_a_at) / RFU LOC730098 (11760151_x_at) / Fold change /veh LOC730098 (11760151_x_at) / RFU OR4N2 (11742367_at) / Fold change /veh OR4N2 (11742367_at) / RFU PRRT2 (11749266_a_at) / Fold change /veh PRRT2 (11749266_a_at) / RFU SNX32 (11753110_a_at) / Fold change /veh SNX32 (11753110_a_at) / RFU CDHR5 (11726645_a_at) / Fold change /veh CDHR5 (11726645_a_at) / RFU RCAN1 (11760418_a_at) / Fold change /veh RCAN1 (11760418_a_at) / RFU FAM167A (11723789_a_at) / Fold change /veh FAM167A (11723789_a_at) / RFU FAM26E (11764081_at) / Fold change /veh FAM26E (11764081_at) / RFU ISYNA1 (11749810_s_at) / Fold change /veh ISYNA1 (11749810_s_at) / RFU ACY1 (11761880_at) / Fold change /veh ACY1 (11761880_at) / RFU 11764098_at / Fold change /veh 11764098_at / RFU SAMD14 (11745864_x_at) / Fold change /veh SAMD14 (11745864_x_at) / RFU NPB (11741838_a_at) / Fold change /veh NPB (11741838_a_at) / RFU TMPRSS6 (11731388_a_at) / Fold change /veh TMPRSS6 (11731388_a_at) / RFU KRTAP10-2 (11738614_at) / Fold change /veh KRTAP10-2 (11738614_at) / RFU ARHGAP8 /// PRR5-ARHGAP8 (11727945_x_at) / Fold change /veh ARHGAP8 /// PRR5-ARHGAP8 (11727945_x_at) / RFU KRTAP5-7 /// NADSYN1 (11734609_at) / Fold change /veh KRTAP5-7 /// NADSYN1 (11734609_at) / RFU RASL12 (11751679_a_at) / Fold change /veh RASL12 (11751679_a_at) / RFU CDKN2B (11736163_a_at) / Fold change /veh CDKN2B (11736163_a_at) / RFU PRF1 (11729649_at) / Fold change /veh PRF1 (11729649_at) / RFU, ZNF638 /// ZNF638-IT1 / Fold change vs veh, ZNF638 /// ZNF638-IT1 / RFU, PANK3 / Fold change vs veh, PANK3 / RFU, SH3YL1 / Fold change vs veh, SH3YL1 / RFU, ZEB2 / Fold change vs veh, ZEB2 / RFU, NRIP1 / Fold change vs veh, NRIP1 / RFU, PTTG1IP / Fold change vs veh, PTTG1IP / RFU, CAPN2 / Fold change vs veh, CAPN2 / RFU, MED14 / Fold change vs veh, MED14 / RFU, SNORA58 / Fold change vs veh, SNORA58 / RFU, C1orf63 / Fold change vs veh, C1orf63 / RFU, LRRFIP1 / Fold change vs veh, LRRFIP1 / RFU, NDUFAF7 / Fold change vs veh, NDUFAF7 / RFU, SLC12A2 / Fold change vs veh, SLC12A2 / RFU, IBTK / Fold change vs veh, IBTK / RFU, ESF1 / Fold change vs veh, ESF1 / Fold change vs veh, TMEM50B / RFU, TAOK1 / Fold change vs veh, TAOK1 / RFU, ACBD3 / Fold change vs veh, ACBD3 / RFU, TMA16 / Fold change vs veh, TMA16 / RFU, RWDD3 / Fold change vs veh, RWDD3 / RFU, BCAT1 / Fold change vs veh, BCAT1 / RFU, EDEM3 / Fold change vs veh, EDEM3 / RFU, TMEM33 / Fold change vs veh, TMEM33 / RFU, WDR75 / Fold change vs veh, WDR75 / RFU, AHCTF1 / Fold change vs veh, AHCTF1 / RFU, TFRC / Fold change vs veh, TFRC / RFU, ZDHHC17 / Fold change vs veh, ZDHHC17 / RFU, NOM1 / Fold change vs veh, NOM1 / RFU, ARL8B / Fold change vs veh, ARL8B / RFU, ZBTB11 / Fold change vs veh, ZBTB11 / RFU, TAMM41 / Fold change vs veh, TAMM41 / RFU, KIAA1704 /// LOC100996395 / Fold change vs veh, KIAA1704 /// LOC100996395 / RFU, ING1 / Fold change vs veh, ING1 / RFU, TRMT61B / Fold change vs veh, TRMT61B / RFU, FUBP3 / Fold change vs veh, FUBP3 / RFU, TP53 / Fold change vs veh, TP53 / RFU, TNKS2 / Fold change vs veh, TNKS2 / RFU, ZFP14 / Fold change vs veh, ZFP14 / RFU, ACTR2 / Fold change vs veh, ACTR2 / RFU, PPP3R1 / Fold change vs veh, PPP3R1 / RFU, PIK3R1 / Fold change vs veh, PIK3R1 / RFU, HNRNPA1 / Fold change vs veh, HNRNPA1 / RFU, RNF170 / Fold change vs veh, RNF170 / RFU, ZNF28 / Fold change vs veh, ZNF28 / RFU, RNGTT / Fold change vs veh, RNGTT / RFU, OGT / Fold change vs veh, OGT / RFU, BRD1 / Fold change vs veh, BRD1 / RFU, MARS / Fold change vs veh, MARS / RFU, ZNF655 / Fold change vs veh, ZNF655 / RFU, FAHD1 / Fold change vs veh, FAHD1 / RFU, BDP1 / Fold change vs veh, BDP1 / RFU, LRRCC1 / Fold change vs veh, LRRCC1 / RFU, ARID1A / Fold change vs veh, ARID1A / RFU, ZNF146 / Fold change vs veh, ZNF146 / RFU, ZNF330 / Fold change vs veh, ZNF330 / RFU, GPN3 / Fold change vs veh, GPN3 / RFU, C9orf123 / Fold change vs veh, C9orf123 / RFU, N4BP2L2 / Fold change vs veh, N4BP2L2 / RFU, ARFIP1 / Fold change vs veh, ARFIP1 / RFU, FAM179B / Fold change vs veh, FAM179B / RFU, BCL10 / Fold change vs veh, BCL10 / RFU, UHRF1BP1L / Fold change vs veh, UHRF1BP1L / RFU, BET1 / Fold change vs veh, BET1 / RFU, CNOT2 / Fold change vs veh, CNOT2 / RFU, ZNF268 / Fold change vs veh, ZNF268 / Fold change vs veh, ZNF507 / RFU, DGCR2 / Fold change vs veh, DGCR2 / RFU, WDSUB1 / Fold change vs veh, WDSUB1 / Fold change vs veh, HSP90B1 /// MIR3652 / RFU, ADSS / Fold change vs veh, ADSS / RFU, GK / Fold change vs veh, GK / RFU, ZNF148 / Fold change vs veh, ZNF148 / RFU, TAF9 / Fold change vs veh, TAF9 / RFU, SLC1A5 / Fold change vs veh, SLC1A5 / RFU, SLMO2 / Fold change vs veh, SLMO2 / RFU, ABCC4 / Fold change vs veh, ABCC4 / RFU, LOC101060439 /// RAP1B / Fold change vs veh, LOC101060439 /// RAP1B / RFU, RFX7 / Fold change vs veh, RFX7 / RFU, GTPBP10 / Fold change vs veh, GTPBP10 / RFU, CNEP1R1 / Fold change vs veh, CNEP1R1 / RFU, BIVM-ERCC5 /// ERCC5 / Fold change vs veh, BIVM-ERCC5 /// ERCC5 / RFU, ILF3 / Fold change vs veh, ILF3 / RFU 11762660_at / Fold change /veh 11762660_at / RFU VCAN (11757783_s_at) / Fold change /veh VCAN (11757783_s_at) / RFU DDX43 (11728927_at) / Fold change /veh DDX43 (11728927_at) / RFU KRT8 (11758188_x_at) / Fold change /veh KRT8 (11758188_x_at) / RFU NKD1 (11759106_at) / Fold change /veh NKD1 (11759106_at) / RFU SRD5A1 (11742802_a_at) / Fold change /veh SRD5A1 (11742802_a_at) / RFU TPSAB1 /// TPSB2 (11721975_s_at) / Fold change /veh TPSAB1 /// TPSB2 (11721975_s_at) / RFU GSTM3 (11746129_a_at) / Fold change /veh GSTM3 (11746129_a_at) / RFU IL23R (11737362_x_at) / Fold change /veh IL23R (11737362_x_at) / RFU TMEM51 (11727254_a_at) / Fold change /veh TMEM51 (11727254_a_at) / RFU PIWIL2 (11732686_x_at) / Fold change /veh PIWIL2 (11732686_x_at) / RFU ORM1 (11744905_x_at) / Fold change /veh ORM1 (11744905_x_at) / RFU CCDC152 (11743942_at) / Fold change /veh CCDC152 (11743942_at) / RFU ECM1 (11717891_a_at) / Fold change /veh ECM1 (11717891_a_at) / RFU IL23R (11748794_a_at) / Fold change /veh IL23R (11748794_a_at) / RFU TNFAIP8L3 (11732012_x_at) / Fold change /veh TNFAIP8L3 (11732012_x_at) / RFU MBOAT4 (11741988_at) / Fold change /veh MBOAT4 (11741988_at) / RFU 11764193_at / Fold change /veh 11764193_at / RFU TMEM53 (11763286_at) / Fold change /veh TMEM53 (11763286_at) / RFU MAGEB2 (11727129_at) / Fold change /veh MAGEB2 (11727129_at) / RFU TMEM200A (11744735_a_at) / Fold change /veh TMEM200A (11744735_a_at) / RFU CCDC152 (11751479_a_at) / Fold change /veh CCDC152 (11751479_a_at) / RFU FAM211A (11726209_a_at) / Fold change /veh FAM211A (11726209_a_at) / RFU RGS16 (11746705_a_at) / Fold change /veh RGS16 (11746705_a_at) / RFU VCAN (11755009_s_at) / Fold change /veh VCAN (11755009_s_at) / RFU RHOB (11743442_s_at) / Fold change /veh RHOB (11743442_s_at) / RFU RGS16 (11720943_a_at) / Fold change /veh RGS16 (11720943_a_at) / RFU RGS16 (11720944_at) / Fold change /veh RGS16 (11720944_at) / RFU, VPS4B / Fold change vs veh, VPS4B / RFU, CREB1 / Fold change vs veh, CREB1 / RFU, DNAJC13 / Fold change vs veh, DNAJC13 / RFU, GNAQ / Fold change vs veh, GNAQ / RFU, CDK5R1 / Fold change vs veh, CDK5R1 / RFU, ZRANB3 / Fold change vs veh, ZRANB3 / RFU, CUL4A / Fold change vs veh, CUL4A / RFU, CCNY / Fold change vs veh, CCNY / RFU, UFL1 / Fold change vs veh, UFL1 / RFU, COG3 / Fold change vs veh, COG3 / RFU, DIAPH2 / Fold change vs veh, DIAPH2 / RFU, SKA2 / Fold change vs veh, SKA2 / RFU, AFF3 / Fold change vs veh, AFF3 / RFU, LMF1 / Fold change vs veh, LMF1 / RFU, IPO11 / Fold change vs veh, IPO11 / RFU, DFFB / Fold change vs veh, DFFB / RFU, FOXP1 / Fold change vs veh, FOXP1 / RFU, CARD8 / Fold change vs veh, CARD8 / RFU, STRN3 / Fold change vs veh, STRN3 / RFU, ADK / Fold change vs veh, ADK / RFU, RASSF2 / Fold change vs veh, RASSF2 / RFU, WIPF1 / Fold change vs veh, WIPF1 / RFU, LARP1B / Fold change vs veh, LARP1B / RFU, RASA1 / Fold change vs veh, RASA1 / RFU, RB1 / Fold change vs veh, RB1 / RFU, PPFIA1 / Fold change vs veh, PPFIA1 / RFU, MAT2A / Fold change vs veh, MAT2A / RFU, CCT5 / Fold change vs veh, CCT5 / RFU, WDR92 / Fold change vs veh, WDR92 / RFU, CUX1 / Fold change vs veh, CUX1 / RFU, TTC7A / Fold change vs veh, TTC7A / RFU, TMEM135 / Fold change vs veh, TMEM135 / RFU, DEPTOR / Fold change vs veh, DEPTOR / RFU, CPM / Fold change vs veh, CPM / RFU, DNAJB6 / Fold change vs veh, DNAJB6 / RFU, CACNA2D3 / Fold change vs veh, CACNA2D3 / RFU, DTX4 / Fold change vs veh, DTX4 / RFU, TFCP2 / Fold change vs veh, TFCP2 / RFU, GMCL1 /// GMCL1P1 / Fold change vs veh, GMCL1 /// GMCL1P1 / RFU, AEBP2 / Fold change vs veh, AEBP2 / RFU, SNHG1 /// SNORD22 /// SNORD25 /// SNORD26 /// SNORD27 /// SNORD28 /// SNORD29 /// SNORD31 / Fold change vs veh, SNHG1 /// SNORD22 /// SNORD25 /// SNORD26 /// SNORD27 /// SNORD28 /// SNORD29 /// SNORD31 / Fold change (Aza/veh), C12orf56 (ProbeSet 11735607_a_at) / Fold change (ACY-1035/veh), C12orf56 (ProbeSet 11735607_a_at) / Fold change (Aza/veh), FGFR1OP (ProbeSet 11751329_s_at) / Fold change (ACY-1035/veh), FGFR1OP (ProbeSet 11751329_s_at) / Fold change (Aza/veh), VPS36 (ProbeSet 11739960_a_at) / Fold change (ACY-1035/veh), VPS36 (ProbeSet 11739960_a_at) / RFU SYPL1 (11715823_x_at) / Fold change /veh SYPL1 (11715823_x_at) / RFU IGFBP7 (11715501_s_at) / Fold change /veh IGFBP7 (11715501_s_at) / RFU REEP3 (11722064_at) / Fold change /veh REEP3 (11722064_at) / RFU IGLL1 (11728026_x_at) / Fold change /veh IGLL1 (11728026_x_at): dose or concentration left out as unconfirmed
Settings: MV-4-11 cells, 48 hours

Nc1ncn([C@@H]2O[C@H](CO)[C@@H](O)[C@H]2O)c(=O)n1 [azacitidine]
Fold change /veh TMPRSS4 (11747572_a_at): 1.01
